Measurements: PMC11882969 (Nature Communications, 2025)
Values joined by “and” are separate entries in the source; they are usually repeats but may differ in a detail not shown here. Identical values can stand only once.

Legend:
[1] = target: CB1 (rCB1) (Rattus norvegicus, UniProt P20272); test: Radioligand competition binding, [3H]-CP-55,940, rat brain membranes
[2] = target: hCB1 (Homo sapiens, UniProt P21554); test: bioSensAll ebBRET signaling profiling, hCB1; format: cell-based; parameters: host or cells: HEK293SL cells, transient PEI transfection; details: for Gi1 hCB1 response: Gi1 biosensor; for Gi1 hCB1 / GoB hCB1: single replicate values, FigS6a
Sequence of hCB1 (P21554 whole entry): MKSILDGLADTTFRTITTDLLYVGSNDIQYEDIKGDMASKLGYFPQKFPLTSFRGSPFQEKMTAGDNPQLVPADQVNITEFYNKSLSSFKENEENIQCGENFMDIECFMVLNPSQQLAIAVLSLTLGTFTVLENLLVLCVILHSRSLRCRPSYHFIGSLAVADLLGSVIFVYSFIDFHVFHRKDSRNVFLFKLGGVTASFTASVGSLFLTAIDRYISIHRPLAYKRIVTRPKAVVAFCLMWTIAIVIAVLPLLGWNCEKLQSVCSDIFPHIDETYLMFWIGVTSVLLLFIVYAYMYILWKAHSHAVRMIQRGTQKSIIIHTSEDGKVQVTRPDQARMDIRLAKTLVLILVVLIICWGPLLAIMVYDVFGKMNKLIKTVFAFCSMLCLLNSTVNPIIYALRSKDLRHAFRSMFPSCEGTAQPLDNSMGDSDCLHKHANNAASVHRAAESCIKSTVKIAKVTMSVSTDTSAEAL

Sequence of CB1 (rCB1) (P20272 whole entry): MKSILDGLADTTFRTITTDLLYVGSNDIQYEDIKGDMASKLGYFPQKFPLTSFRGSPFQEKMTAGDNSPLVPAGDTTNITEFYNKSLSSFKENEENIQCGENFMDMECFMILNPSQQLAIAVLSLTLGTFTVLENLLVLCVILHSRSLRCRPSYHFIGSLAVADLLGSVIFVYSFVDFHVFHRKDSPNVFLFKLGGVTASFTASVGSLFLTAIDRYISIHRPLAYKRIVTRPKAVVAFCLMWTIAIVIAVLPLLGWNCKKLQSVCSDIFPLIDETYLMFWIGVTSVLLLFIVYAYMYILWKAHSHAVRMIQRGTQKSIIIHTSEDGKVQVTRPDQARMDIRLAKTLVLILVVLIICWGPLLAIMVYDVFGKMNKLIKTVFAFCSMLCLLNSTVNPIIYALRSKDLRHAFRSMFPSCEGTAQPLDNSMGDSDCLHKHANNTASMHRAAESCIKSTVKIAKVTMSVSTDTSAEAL

Cc1cc(C(=O)N(C)C(c2ccco2)c2ccco2)nn1-c1cccc(C(F)(F)F)c1 [‘4388]
pKi [95% CI] ([1]; rCB1): 5.9 [5.7 – 6.0] | Ki ([1]; read-out: Ki [95% CI], rCB1, [3H]-CP-55,940): 1360 nM | Gi1 hCB1 response ([2]; Log [Compound] (M) -4.22186): -4.018 | Gi1 hCB1 response ([2]; Log [Compound] (M) -4.63927): -19.2595 | Gi1 hCB1 response ([2]; Log [Compound] (M) -5.05788): -23.1763 | Gi1 hCB1 response ([2]; Log [Compound] (M) -5.47381): 10.5525 | Gi1 hCB1 response ([2]; Log [Compound] (M) -5.89285): -11.6498 | Gi1 hCB1 response ([2]; Log [Compound] (M) -6.31878): -15.6337 | Gi1 hCB1 response ([2]; Log [Compound] (M) -6.72585): 2.07 | Gi1 hCB1 response ([2]; Log [Compound] (M) -7.14267): 5.942 | Gi1 hCB1 response ([2]; Log [Compound] (M) -7.55284): 4.107 | Gi1 hCB1 response ([2]; Log [Compound] (M) -8): 5.7853 | Gi1 hCB1 response ([2]; Log [Compound] (M) -8.22186): 57.4864 | Gi1 hCB1 response ([2]; Log [Compound] (M) -8.39794): -7.509 | Gi1 hCB1 response ([2]; Log [Compound] (M) -8.68787): 16.0808 | Gi1 hCB1 response ([2]; Log [Compound] (M) -9.15521): -3.346 | Gi1 hCB1 response ([2]; Log [Compound] (M) -9.61989): -13.3061 | Gi1 hCB1 response ([2]; Log [Compound] (M) -10.0969): -9.456 | Gi1 hCB1 response ([2]; Log [Compound] (M) -10.5529): 6.658 | Gi1 hCB1 response ([2]; Log [Compound] (M) -11.0177): 9.836 | Gi1 hCB1 response ([2]; Log [Compound] (M) -11.4949): 13.8426 | Gi1 hCB1 response ([2]; Log [Compound] (M) -11.9208): 7.912 | Gi1 hCB1 response ([2]; Log [Compound] (M) -12.3979): 17.8713 | Gi1 hCB1 response ([2]; Log [Compound] (M) -12.8861): 0.7271 | Gi1 hCB1 response ([2]; Log [Compound] (M) -13, individual replicate values): -6.01 and 6.502 | Gi1 hCB1 ([2]; Log [Compound] (M) -4.22186): -1.453 | GoB hCB1 ([2]; Log [Compound] (M) -4.22186): -21.3927 | Gi1 hCB1 ([2]; Log [Compound] (M) -4.63927): -2.47 | GoB hCB1 ([2]; Log [Compound] (M) -4.63927): -23.227 | Gi1 hCB1 ([2]; Log [Compound] (M) -5.05788): -11.3501 | GoB hCB1 ([2]; Log [Compound] (M) -5.05788): -26.2122 | Gi1 hCB1 ([2]; Log [Compound] (M) -5.47381): -11.1959 | GoB hCB1 ([2]; Log [Compound] (M) -5.47381): -26.6258 | Gi1 hCB1 ([2]; Log [Compound] (M) -5.89285): -9.5 | GoB hCB1 ([2]; Log [Compound] (M) -5.89285): -20.8711 | Gi1 hCB1 ([2]; Log [Compound] (M) -6.31878): -8.93 | GoB hCB1 ([2]; Log [Compound] (M) -6.31878): -17.76 | Gi1 hCB1 ([2]; Log [Compound] (M) -6.72585): -4.983 | GoB hCB1 ([2]; Log [Compound] (M) -6.72585): -9.883 | Gi1 hCB1 ([2]; Log [Compound] (M) -7.14267): 0.7674 | GoB hCB1 ([2]; Log [Compound] (M) -7.14267): -5.046 | Gi1 hCB1 ([2]; Log [Compound] (M) -7.55284): 2.355 | GoB hCB1 ([2]; Log [Compound] (M) -7.55284): 0.4032 | Gi1 hCB1 ([2]; Log [Compound] (M) -8): 1.985 | GoB hCB1 ([2]; Log [Compound] (M) -8): -1.107 | Gi1 hCB1 ([2]; Log [Compound] (M) -8.22186): 1.292 | GoB hCB1 ([2]; Log [Compound] (M) -8.22186): -1.989 | Gi1 hCB1 ([2]; Log [Compound] (M) -8.39794): 1.677 | GoB hCB1 ([2]; Log [Compound] (M) -8.39794): 0.9427 | Gi1 hCB1 ([2]; Log [Compound] (M) -8.68787): 1.23 | GoB hCB1 ([2]; Log [Compound] (M) -8.68787): -0.8377 | Gi1 hCB1 ([2]; Log [Compound] (M) -9.15521): 0.9215 | GoB hCB1 ([2]; Log [Compound] (M) -9.15521): -0.8737 | Gi1 hCB1 ([2]; Log [Compound] (M) -9.61989): 0.08902 | GoB hCB1 ([2]; Log [Compound] (M) -9.61989): -0.7118 | Gi1 hCB1 ([2]; Log [Compound] (M) -10.0969): 1.816 | GoB hCB1 ([2]; Log [Compound] (M) -10.0969): -0.7298 | Gi1 hCB1 ([2]; Log [Compound] (M) -10.5529): 1.122 | GoB hCB1 ([2]; Log [Compound] (M) -10.5529): -2.258 | Gi1 hCB1 ([2]; Log [Compound] (M) -11.0177): 1.6 | GoB hCB1 ([2]; Log [Compound] (M) -11.0177): 0.6549 | Gi1 hCB1 ([2]; Log [Compound] (M) -11.4949): 2.232 | GoB hCB1 ([2]; Log [Compound] (M) -11.4949): -1.305 | Gi1 hCB1 ([2]; Log [Compound] (M) -11.9208): 2.186 | GoB hCB1 ([2]; Log [Compound] (M) -11.9208): -1.089 | Gi1 hCB1 ([2]; Log [Compound] (M) -12.3979): 1.137 | GoB hCB1 ([2]; Log [Compound] (M) -12.3979): -1.305 | Gi1 hCB1 ([2]; Log [Compound] (M) -12.8861): 1.415 | GoB hCB1 ([2]; Log [Compound] (M) -12.8861): -0.9816 | Gi1 hCB1 ([2]; Log [Compound] (M) -13): 2.1086 and 2.987 | GoB hCB1 ([2]; Log [Compound] (M) -13): 0.8707 and 0.2953
